Results taken from patent US5698567A, “Heterocyclic spiro compounds” (Adir Et Compagnie, priority 1995, dated 1997).
Where a name gives a salt, the structure may show the parent alone.

Columns and labels:
5-lipoxygenase [1] = assay: Inhibition of the synthesis of LTB4 by the peritoneal PMN of rats in vitro (5-lipoxygenase-inhibiting activity); format: cell-based, rat; conditions: rat peritoneal PMN, A23187 10^-6 M
Text: 1.1 Determination of 5-1ipoxygenase-inhibiting activity in vitro (see Goldyne M. E., Burrish G. F., Poubelle P. and Borgeat P., Arachidonic Acid Metabolism among human mononuclear leukocytes. The Journal of Biological Chemistry. Vol. 259, N° 4, p. 8815-8819, 1984, and New Chang C. and Gin Wensu. Stimulation of 5-Lipoxygenase Activity in Polymorphonuclear Leukocytes of Rats by Caseinate Treatment. Biochemical Pharmacology. Vol. 36, N° 8, p. 3033-3036, 1987).
(§1) 5-Lipoxygenase-inhibiting activity was determined on peritoneal leukocytes of rats. Leukocytosis is induced in male OFA rats (IFFA CREDO) weighing 200-250 g by the intraperitoneal injection of 12% sodium caseinate. 18 hours later, the cells are collected by washing the abdominal cavity. The number of cells is adjusted to 2×10^6 /ml.
(§2) The cell suspension is incubated for 10 minutes at 37° C. in the presence of Ca^2+ 5×10^-4 M and Mg^2+ 2×10^-3 M and of various concentrations of the test products. The cells are then stimulated with the calcium ionophore A23187 at a concentration of 10^-6 M for 5 minutes at 37° C. Controls are carded out by incubating the cells with the solvent for the products: 2% DMSO.
After stopping the reaction at +4° C. and centrifugation, the quantity of LTB4 in ng/2×10^6 cells in the supernatants is determined by the E.I.A. method (Statlergenes France). The percentage inhibition is calculated as follows: [formula]
(§3) Metabolism of arachidonic acid by the peritoneal PMN of rats stimulated
(§4) for 5 minutes in vitro by the calcium ionophore (A23187): 10^-6 M.
(§5) Incubation of the products with the cells for 10 minutes prior to
(§6) stimulation with the ionophore.

[2] = system: synthesis of PGE2 by the peritoneal PMN of rats; assay: Inhibition of the synthesis of PGE2 by the peritoneal PMN of rats in vitro; format: cell-based, rat; conditions: A23187; for inhibition at 100 µM: 10^-4 M; for inhibition at 100 µM / inhibition at 10 µM: rat peritoneal PMN; for inhibition at 10 µM: 10^-5 M; for IC50: rat peritoneal PMN in vitro
Method: as §1, §2, §3, §4, §5, §6

5-lipoxygenase [3] = assay: Inhibition of the synthesis of LTB4 in total blood of rats ex vivo (5-lipoxygenase-inhibiting activity); design: species or system rat; conditions: 60 μmol/kg p.o., 1 h; A23187 5 × 10^-5 M, n = 8
Method: 1.2 Determination of 5-lipoxygenase-inhibiting activity ex vivo (see Brideau C., Chan C., Charleson S., Denis D. et al. Pharmacology of MK-0591 (3-[1-(4-chlorobenzyl)-3-(t-butyl-thio)-5(quinolin-2-yl-methoxy)-indol-2-yl]-2,2-dimethyl propanoic acid), a Potent, Orally Active Leukotriene Biosynthesis Inhibitor. Can. J. Physiol. Pharmacol. Vol. 70, p. 799-807, 1992).
Inhibition of the biosynthesis of leukotrienes ex vivo following oral administration of the compounds was determined by studying the production of leukotrienes on total blood of rats stimulated in vitro by the calcium ionophore at time 1 hour after oral administration of the compounds.
The various products are administered in suspension in hydroxyethylcellulose: 0.5% H.E.C. at a dose of 60 μmol/kg. Each product is studied on a group of 8 different animals. A control group receives 0.5% H.E.C. only. After intracardial removal of the blood from each rat (male Sprague Dawley rats weighing 150-200 g IFFA CREDO), 1 ml of heparinised blood is incubated with the calcium ionophore A23 187 at a concentration of 5×10^-5 M for 10 minutes at 37° C. The blood is then centrifuged immediately and 100 μl of plasma are extracted in 400 μl of methanol. After centrifugation, the supernatant is evaporated to dryness under N2, the dry residue is taken up in buffer solution, and the LTB4 is assayed by the E.I.A. method (Stallergenes France).
The percentage inhibition is expressed as follows: [formula] 2/Results
Average relative to all controls n = 31
Products administered p.o. 1 hour before removal of blood n = 8
Total blood of rats stimulated for 10 minutes in vitro by the calcium

SMILES	IC50 [2]	LTB4 % Inhibition (5-lipoxygenase [1]; 4.10^-8 M)	LTB4 % Inhibition (5-lipoxygenase [1]; 10^-6 M)	LTB4 % Inhibition (5-lipoxygenase [1]; 10^-7 M)	LTB4 % Inhibition (5-lipoxygenase [1]; 10^-8 M)	inhibition at 100 µM [2]	inhibition at 10 µM [2]	% Inhibition of the synthesis of LTB4 in total blood of rats ex vivo (5-lipoxygenase [3])
O=C1NCC2(CCN(C(c3ccc(Cl)cc3)c3ccc(OCc4ccc5ccccc5n4)cc3)CC2)O1 (racemic) [Example 22, (R,S)-8-{(4-chlorophenyl)-[4-(quinol-2-ylmethoxy)phenyl]methyl}-3,8-diaza-1-oxa-2-oxospiro[4,5]decane dihydrochloride]	> 100 µM	76%	100%	97%	18%	4%	6%	17%
O=C1NCC2(CCN(CC(Cc3ccccc3)c3ccc(OCc4ccc5ccccc5n4)cc3)CC2)O1 (racemic) [Example 32, (R,S)-8-{3-phenyl-2-[4-(quinol-2-ylmethoxy)phenyl]propyl}-3,8-diaza-1-oxa-2-oxospiro[4,5]decane]		24%	100%	78%		92%		55%
O=C1NCC2(CCN(CC(c3ccccc3)c3ccc(OCc4ccc5ccccc5n4)cc3)CC2)O1 (racemic) [Example 6, (R,S)-8-{2-phenyl-2-[4-(quinol-2-ylmethoxy)phenyl]ethyl}-3,8-diaza-1-oxa-2-oxospiro[4,5]decane]		60%	100%	93%	21%	88%	3%	64%
O=C1NCC2(CCN(CC(c3ccc(Cl)cc3)c3ccc(OCc4ccc5ccccc5n4)cc3)CC2)O1 (racemic) [Example 8, (R,S)-8-{2-(4-chlorophenyl)-2-[4-(quinol-2-ylmethoxy)phenyl]ethyl}-3,8-diaza-1-oxa-2-oxospiro[4,5]decane dihydrochloride]		85%	100%	100%	22%	72%	32%	46%

Continued, in another order:

IC50 [2]	SMILES	LTB4 % Inhibition (5-lipoxygenase [1]; 4.10^-8 M)	LTB4 % Inhibition (5-lipoxygenase [1]; 10^-6 M)	LTB4 % Inhibition (5-lipoxygenase [1]; 10^-7 M)	LTB4 % Inhibition (5-lipoxygenase [1]; 10^-8 M)	inhibition at 100 µM [2]	inhibition at 10 µM [2]	% Inhibition of the synthesis of LTB4 in total blood of rats ex vivo (5-lipoxygenase [3])
> 100 µM	O=C1NCC2(CCN(CC(Cc3ccc(Cl)cc3)c3ccc(OCc4ccc5ccccc5n4)cc3)CC2)O1 (racemic) [Example 34, (R,S)-8-{3-(4-chlorophenyl)-2-[4-(quinol-2-ylmethoxy)phenyl]propyl}-3,8-diaza-1-oxa-2-oxospiro[4,5]decane hydrochloride]	56%	100%	72%	12%	6%	2%	58%
> 100 µM	O=C1NCC2(CCN(C(c3ccccc3)c3ccc(OCc4ccc5ccccc5n4)cc3)CC2)O1 (racemic) [Example 24, (R,S)-8-{phenyl-[4-(quinol-2-ylmethoxy)phenyl]methyl}-3,8-diaza-1-oxa-2-oxospiro[4,5]decane]	56%		100%		44%	19%	41%
